# Paper PMC3188330 (2011)
# Tests used:
# [1] = target: T1, UGT1A10 (Homo sapiens, UniProt Q9HAW8); test: glucuronidation rate at […]; format: cell-based
# T1 sequence (Q9HAW8 26-530): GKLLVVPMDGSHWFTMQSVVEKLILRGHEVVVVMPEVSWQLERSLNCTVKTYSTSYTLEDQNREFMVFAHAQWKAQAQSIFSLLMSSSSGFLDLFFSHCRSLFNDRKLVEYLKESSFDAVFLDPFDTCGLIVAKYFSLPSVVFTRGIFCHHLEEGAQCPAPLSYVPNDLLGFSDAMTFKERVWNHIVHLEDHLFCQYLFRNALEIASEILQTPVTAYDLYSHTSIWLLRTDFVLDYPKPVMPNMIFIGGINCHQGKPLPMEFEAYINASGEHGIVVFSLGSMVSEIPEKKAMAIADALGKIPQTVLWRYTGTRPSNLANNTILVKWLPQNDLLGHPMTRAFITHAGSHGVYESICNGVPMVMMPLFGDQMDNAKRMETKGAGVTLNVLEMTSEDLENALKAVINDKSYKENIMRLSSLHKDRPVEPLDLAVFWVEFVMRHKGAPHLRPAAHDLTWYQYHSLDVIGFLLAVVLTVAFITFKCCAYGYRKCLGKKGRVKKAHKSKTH
# [2] = target: T1, UGT1A10; test: glucuronidation rate at […]; format: cell-based; remark: listed apart in the source
Compound,glucuronidation rate at 100 μM (HPLC) [1],glucuronidation rate at 500 μM (HPLC) [2]
Oc1cccc2ccccc12 [1-naphthol],F93L catalyzed 1-naphthol glucuronidation at about twice the rate of the control UGT1A10,–
COc1cc2ccc(=O)oc2cc1O [scopoletin],–,"majority of the mutants were higher than control, up to six fold the (normalized) rate of UGT1A10"
